As usually defined, the viability, T/C is the result in the treated group divided by that in the control group, in per cent.

“And” between values parts separate entries of the source, which are not always exact repeats. Identical values can stand only once.
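Note: spheroids exposed to compounds for seven days.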

The subject of one assay is 695427-040-R-J1-PDC complex spheroid viability. In words: Anticancer human tumor 695427-040-R-J1-PDC patient-derived colon adenocarcinoma cell line growth inhibition [POLQ]. Conditions: compound 0.0316 µM; hits give low values. The protocol: Multicellular complex tumor spheroid response to Polymerase (POL) inhibitors (novobiocin, ART-558, RP6685) in combination with a variety of drugs and investigational agents in selected tumor cell lines
The POL inhibitors (novobiocin, ART-558, and RP6685) were evaluated both individually and in combination with standard of care and investigational anticancer small molecules within a complex spheroid model of solid tumors. . Complex spheroids include a stromal component modeled by human endothelial cells (HUVEC) and fibroblasts modeled by human mesenchymal stem cells (MSCs). The concentration ranges selected for each drug and investigational agent were based upon clinically achievable concentrations if the clinical Cmax of the agent was known.
Compounds. The drugs and investigational agents: novobiocin (NSC847541), ART-558 (NSC835418), RP-6685 (NSC848927), peposertib (NSC802822), ceralasertib (NSC780249), elimusertib (NSC800525), camonsertib (NSC841442), AZD-1390 (NSC803789), olaparib (NSC753686), talazoparib (NSC767125), rucaparib (NSC756644), sotorasib (NSC818433), MRTX-1133 (NSC836407), SN-38 (NSC673596), topotecan (NSC609699), epotoside (NSC141540), doxorubicin (NSC123127), gemcitabine (NSC613327), 5-fluorouracil (NSC19893), paclitaxel (NSC125973), vemurafenib (NSC761431), MSA-2 (NSC828583), SN-011 (NSC837082), adavosertib (NSC754352), prexasertib (NSC758257), carboplatin (NSC241240) and oxaliplatin (NSC266046), were obtained from the National Cancer Institute (NCI) Developmental Therapeutics Program Chemical Repository (21). The FDA-approved anticancer drug set is available from the Developmental Therapeutics Program at https://dtp.cancer.gov/organization/dscb/obtaining/. […] The stock solutions were prepared in dimethyl sulfoxide (DMSO, Sigma-Aldrich, St. Louis, MO, cat. D2650), except for the platinum compounds which were prepared in saline (Quality Biological, Gaithersburg, MD, cat. 114-055-101), at 800-fold the tested concentration and stored at -70 degrees C prior to their use. All drugs and investigational agents were tested over a range starting from a high concentration at or near the clinical Cmax and decreasing in half-log increments. If the clinical Cmax for an agent had not been determined, the highest concentration tested was 10 microM, except for SN-38, which was tested at a high concentration of 1 microM.
Cell Culture. All cells were maintained in an incubator at 37 degrees C and 5% CO2 with 95% humidity. The PDC lines were cultured according to standard operating procedures established by the NCI PDMR (https://pdmr.cancer.gov). Table 3 of the manuscript, lists the cell lines along with the number of the three cell types plated to form the mct-spheroids and media for tumor cell growth. After thawing, all PDC lines, except 997537-175-T-J1-PDC and 415267-285-R-J2-PDC, were cultured in Matrigel-coated flasks prepared with a working solution of 1X Ham's F-12 nutrient mix, without supplementation (Thermo Fisher Scientific, cat. 11765054), 100 U/mL penicillin-streptomycin (Thermo Fisher Scientific, cat. 15140122), and 2.5% Matrigel (Corning Inc., Corning, NY, cat. 354248) for the first three passages. The two PDC lines 997537-175-T-J1-PDC and 415267-285-R-J2-PDC were cultured on uncoated flasks. The 857933-349-R-J2-PDC line was cultured in 6C/Colon 1B media containing advanced DMEM/F-12 (Thermo Fisher Scientific, cat. 12634028), 10 mM HEPES (Thermo Fisher Scientific, cat. 15630080), 1X GlutaMAX supplement (Thermo Fisher Scientific, cat. 35050061), 0.1 mg/mL primocin (InvivoGen, San Diego, CA, cat. ant-pm-2), 10% defined fetal bovine serum, heat inactivated (HyClone Laboratories Inc., Logan, UT, cat. SH30070.03HI), 50% L-WRN conditioned media (ATCC, cat. CRL-3276), 1.25 mM N-Acetyl-L-cysteine (Sigma-Aldrich, cat. A9165), 10 mM nicotinamide (Sigma-Aldrich, cat. N0636), 1X B-27 supplement (Thermo Fisher Scientific, cat. 17504044), 1X N-2 supplement (Thermo Fisher Scientific, cat. […]
`C=CC(=O)N1CCN(c2nc(=O)n(-c3c(C)ccnc3C(C)C)c3nc(-c4c(O)cccc4F)c(F)cc23)C(C)C1` (configuration not stated): the viability, T/C was 105% and 108% and 107%.
Turning to `CC(C)n1c(=O)n(C)c2cnc3cc(F)c(-c4ccc(OCCCN5CCCCC5)nc4)cc3c21`, the viability, T/C is 96.7% and 98.1% and 112%.
As for `CC1COCCN1c1cc(-c2ccnn2C)c2ccnc(-c3ccn[nH]3)c2n1` (configuration not stated), the viability, T/C was 99% and 89.7% and 98.1%.
Consider `CC1COCCN1c1cc(C2(S(C)(=N)=O)CC2)nc(-c2ccnc3[nH]ccc23)n1` (configuration not stated), for which the viability, T/C was 102% and 96% and 100%.
Regarding `CCCS(=O)(=O)Nc1ccc(F)c(C(=O)c2c[nH]c3ncc(-c4ccc(Cl)cc4)cc23)c1F`, the viability, T/C was 106% and 102% and 97.1%.
`CCc1cc2c(N3CCc4c(cc(Cn5ccnc5)cc4-c4cn(C)nc4C(F)(F)F)C3=O)ccnc2c(OC)n1`: the viability, T/C is 114% and 91.3% and 93.8%.
Take `CNCc1ccc(-c2[nH]c3cc(F)cc4c3c2CCNC4=O)cc1`: the viability, T/C was 102% and 100% and 94.1%.
On the same count and under the same terms, next, `COc1cc(C2c3cc4c(cc3C(OC3OC5COC(C)OC5C(O)C3O)C3COC(=O)C23)OCO4)cc(OC)c1O` (configuration not stated): 95.6% and 105% and 95.5%.
Regarding `COc1cc2cc(C(=O)CCC(=O)O)sc2cc1OC`, the viability, T/C is 109% and 100% and 101%.
Take `COc1ccc([C@@H](O)c2cc(-c3ncnc4cc(N5CCOCC5)ccc34)c(F)cc2Cl)nn1`: the viability, T/C is 108% and 103% (2×).
Take `Nc1ccn(C2OC(CO)C(O)C2(F)F)c(=O)n1` (configuration not stated): the viability, T/C is 90% and 87.3% (2×).
The same measure, in the same setting: next, `O=C(c1cc(Cc2n[nH]c(=O)c3ccccc23)ccc1F)N1CCN(C(=O)C2CC2)CC1`: 102% and 101% (2×).

Still in this assay, the particulars now being: compound 0.1 µM; hits give low values.
Turning to `C=CC(=O)N1CCN(c2nc(=O)n(-c3c(C)ccnc3C(C)C)c3nc(-c4c(O)cccc4F)c(F)cc23)C(C)C1` (configuration not stated), the viability, T/C is 88.5% and 91.5% and 95.3%.
Regarding `CC(C)n1c(=O)n(C)c2cnc3cc(F)c(-c4ccc(OCCCN5CCCCC5)nc4)cc3c21`, the viability, T/C is 104% and 109% and 101%.
Take `CC1COCCN1c1cc(-c2ccnn2C)c2ccnc(-c3ccn[nH]3)c2n1` (configuration not stated): the viability, T/C was 76.9% and 79.1% and 84.7%.
Turning to `CC1COCCN1c1cc(C2(S(C)(=N)=O)CC2)nc(-c2ccnc3[nH]ccc23)n1` (configuration not stated), the viability, T/C is 96% and 102% and 100%.
In the case of `CCCS(=O)(=O)Nc1ccc(F)c(C(=O)c2c[nH]c3ncc(-c4ccc(Cl)cc4)cc23)c1F`, the viability, T/C was 94.9% and 109% and 95.8%.
Still for that read-out and setting: the value for `CCc1cc2c(N3CCc4c(cc(Cn5ccnc5)cc4-c4cn(C)nc4C(F)(F)F)C3=O)ccnc2c(OC)n1` was 97.6% and 96% and 98.8%; that for `CNCc1ccc(-c2[nH]c3cc(F)cc4c3c2CCNC4=O)cc1` was 96.6% and 99.5% and 98.4%.
Same read-out and setting: next, `COc1cc(C2c3cc4c(cc3C(OC3OC5COC(C)OC5C(O)C3O)C3COC(=O)C23)OCO4)cc(OC)c1O` (configuration not stated): 91.4% and 94.1% and 99%; `COc1cc2cc(C(=O)CCC(=O)O)sc2cc1OC`: 97.3% and 102% and 99.5%; `COc1ccc([C@@H](O)c2cc(-c3ncnc4cc(N5CCOCC5)ccc34)c(F)cc2Cl)nn1`: 91.8% and 86.1% and 99.5%.
The same measure, in the same setting: next, `Nc1ccn(C2OC(CO)C(O)C2(F)F)c(=O)n1` (configuration not stated): 76.8% and 89.3% and 78.8%; `O=C(c1cc(Cc2n[nH]c(=O)c3ccccc23)ccc1F)N1CCN(C(=O)C2CC2)CC1`: 87.2% and 107% and 101%.

The same assay, now with this note: compound 0.316 µM; hits give low values.
`C=CC(=O)N1CCN(c2nc(=O)n(-c3c(C)ccnc3C(C)C)c3nc(-c4c(O)cccc4F)c(F)cc23)C(C)C1` (configuration not stated): the viability, T/C was 103% and 107% and 106%.
For `CC(C)n1c(=O)n(C)c2cnc3cc(F)c(-c4ccc(OCCCN5CCCCC5)nc4)cc3c21`, the viability, T/C is 109% and 104% and 106%.
Still for that read-out and setting: next, `CC1COCCN1c1cc(-c2ccnn2C)c2ccnc(-c3ccn[nH]3)c2n1` (configuration not stated): 64.2% and 62% and 69.8%; `CC1COCCN1c1cc(C2(S(C)(=N)=O)CC2)nc(-c2ccnc3[nH]ccc23)n1` (configuration not stated): 100% and 94.3% and 98.1%.
For the compound `CCCS(=O)(=O)Nc1ccc(F)c(C(=O)c2c[nH]c3ncc(-c4ccc(Cl)cc4)cc23)c1F`, the viability, T/C is 95.9% and 109% and 96.2%.
On to `CCc1cc2c(N3CCc4c(cc(Cn5ccnc5)cc4-c4cn(C)nc4C(F)(F)F)C3=O)ccnc2c(OC)n1`, for which the viability, T/C was 110% and 88.2% and 101%.
As for `CNCc1ccc(-c2[nH]c3cc(F)cc4c3c2CCNC4=O)cc1`, the viability, T/C is 106% and 104% (2×).
As to `COc1cc(C2c3cc4c(cc3C(OC3OC5COC(C)OC5C(O)C3O)C3COC(=O)C23)OCO4)cc(OC)c1O` (configuration not stated), the viability, T/C is 96% and 96.6% and 109%.
With `COc1cc2cc(C(=O)CCC(=O)O)sc2cc1OC`, the viability, T/C is 97.4% and 105% and 103%.
For the compound `COc1ccc([C@@H](O)c2cc(-c3ncnc4cc(N5CCOCC5)ccc34)c(F)cc2Cl)nn1`, the viability, T/C is 92.8% and 93.3% and 97.7%.
Consider `Nc1ccn(C2OC(CO)C(O)C2(F)F)c(=O)n1` (configuration not stated), for which the viability, T/C is 70.9% and 83.7% and 72%.
On the same count and under the same terms, the value for `O=C(c1cc(Cc2n[nH]c(=O)c3ccccc23)ccc1F)N1CCN(C(=O)C2CC2)CC1` was 102% and 110% and 100%.

The same assay, now with this note: compound 1 µM; hits give low values.
`C=CC(=O)N1CCN(c2nc(=O)n(-c3c(C)ccnc3C(C)C)c3nc(-c4c(O)cccc4F)c(F)cc23)C(C)C1` (configuration not stated): the viability, T/C was 117% and 106% and 121%.
Turning to `CC(C)n1c(=O)n(C)c2cnc3cc(F)c(-c4ccc(OCCCN5CCCCC5)nc4)cc3c21`, the viability, T/C was 109% (2×) and 124%.
With `CC1COCCN1c1cc(-c2ccnn2C)c2ccnc(-c3ccn[nH]3)c2n1` (configuration not stated), the viability, T/C was 53.6% and 51.7% and 67.6%.
For `CC1COCCN1c1cc(C2(S(C)(=N)=O)CC2)nc(-c2ccnc3[nH]ccc23)n1` (configuration not stated), the viability, T/C is 103% and 91.7% and 102%.
In the case of `CCCS(=O)(=O)Nc1ccc(F)c(C(=O)c2c[nH]c3ncc(-c4ccc(Cl)cc4)cc23)c1F`, the viability, T/C is 108% and 103% and 104%.
The same measure, in the same setting: next, `CCc1cc2c(N3CCc4c(cc(Cn5ccnc5)cc4-c4cn(C)nc4C(F)(F)F)C3=O)ccnc2c(OC)n1`: 106% and 95.6% and 101%.

The values above are taken from PubChem BioAssay AID1963840 (Molecular Pharmacology Branch, DTP, NCI, 2024).
